Assay results taken from the supplement of paper PMC11061612.

Legend:
Test in all cases: combination Emax (second highest fraction inhibited in the dose matrix, 72 h); higher = more inhibition; extreme values may be limits of the assay
[1] = tested on: Ca9-22 (Head and Neck Carcinoma)
Method in brief: (§1)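 Cell lines grown in DMEM/F12 or RPMI with 10% FBS were plated in 1536-well plates and held 24 hours at 37°C, 5% CO2 before 72 hours of exposure to two-drug dose matrices, with DMSO typically at 0.2%. CellTiter-Glo 2.0 luminescence gave viability, which was converted to inhibition. Vehicle wells were set to 0 and blank wells to 1. Combination Emax is the second-highest inhibition in the matrix, and Bliss excess is the observed combination effect minus the expected EA + EB − EA·EB, where EA and EB are the single-agent effects.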

[2] = tested on: D-263MG (Glioblastoma)
Method in brief: as §1

[3] = tested on: EFM-19 (Breast Carcinoma)
Method in brief: as §1

[4] = tested on: EW-24 (Ewing's Sarcoma)
Method in brief: as §1

[5] = tested on: EoL-1-cell (Acute Myeloid Leukemia)
Method in brief: as §1

[6] = tested on: HOP-62 (Lung Adenocarcinoma)
Method in brief: as §1

[7] = tested on: HSC-4 (Oral Cavity Carcinoma)
Method in brief: as §1

[8] = tested on: Hs-766T (Pancreatic Carcinoma)
Method in brief: as §1

[9] = tested on: KARPAS-299 (T-Cell Non-Hodgkin's Lymphoma)
Method in brief: as §1

[10] = tested on: NCI-H358 (Lung Adenocarcinoma)
Method in brief: as §1

[11] = tested on: NUGC-3 (Gastric Carcinoma)
Method in brief: as §1

[12] = tested on: OVCAR-4 (Ovarian Carcinoma)
Method in brief: as §1

[13] = tested on: PANC-04-03 (Pancreatic Carcinoma)
Method in brief: as §1

[14] = tested on: PWR-1E (Non-Cancerous)
Method in brief: as §1

[15] = tested on: SCC-15 (Oral Cavity Carcinoma)
Method in brief: as §1

[16] = tested on: SU8686 (Pancreatic Carcinoma)
Method in brief: as §1

[17] = tested on: TGW (Neuroblastoma)
Method in brief: as §1

[18] = tested on: TK10 (Kidney Carcinoma)
Method in brief: as §1

[19] = tested on: UACC-62 (Melanoma)
Method in brief: as §1

[20] = tested on: YH-13 (Glioblastoma)
Method in brief: as §1

SMILES | combination Emax [1] | combination Emax [2] | combination Emax [3] | combination Emax [4] | combination Emax [5] | combination Emax [6] | combination Emax [7] | combination Emax [8] | combination Emax [9] | combination Emax [10] | combination Emax [11] | combination Emax [12] | combination Emax [13] | combination Emax [14] | combination Emax [15] | combination Emax [16] | combination Emax [17] | combination Emax [18] | combination Emax [19] | combination Emax [20]
COc1cccc(OCCCN)c1-c1cc(Nc2cnc(C#N)cn2)n[nH]1 [Prexasertib] + Cc1cc2ncnn2cc1Nc1ncc2c(n1)n(C1CCOCC1)c(=O)n2C [AZD7648] (first compound max 1 µM, 7x7, partner max 10 µM) | 1 | 0.835 | 0.349 | 0.649 | 0.998 | 0.582 | 0.588 | 0.709 | 0.962 | 0.769 | 0.747 | 0.777 | 0.599 | 0.983 | 0.549 | 0.528 | 0.947 | 0.738 | 0.823 | 0.869
NC1(C(=O)N[C@@H](CCO)c2ccc(Cl)cc2)CCN(c2ncnc3[nH]ccc23)CC1 [Capivasertib] + CCN(CCO)CCCOc1ccc2c(Nc3cc(CC(=O)Nc4cccc(F)c4)[nH]n3)ncnc2c1 [AZD2811] (first compound max 10 µM, 7x7, partner max 1 µM) | 0.445 | 0.455 | 0.586 | 0.659 | 1 | 0.483 | 0.514 | 0.23 | 0.337 | 0.394 | 0.448 | 0.323 | 0.305 | 0.713 | 0.334 | 0.121 | 0.273 | 0.403 | 0.556 | 0.627
NC1(C(=O)N[C@@H](CCO)c2ccc(Cl)cc2)CCN(c2ncnc3[nH]ccc23)CC1 [Capivasertib] + C[C@@H]1COCCN1C2=NC(=NC(=C2)C3(CC3)[S@](=N)(=O)C)C4=C5C=CNC5=NC=C4 [AZD6738] (first compound max 10 µM, 7x7, partner max 10 µM) | 0.872 | 0.442 | 0.526 | 0.786 | 1 | 0.652 | 0.73 | 0.437 | 0.928 | 0.554 | 0.74 | 0.707 | 0.575 | 0.947 | 0.601 | 0.166 | 0.614 | 0.605 | 0.568 | 0.648
CN(CCO)CC[C@H](CSc1ccccc1)Nc1ccc(S(=O)(=O)NC(=O)c2ccc(N3CCC([C@@H](O)c4ccccc4-c4ccc(Cl)cc4)CC3)cc2)cc1S(=O)(=O)C(F)(F)F [AZD4320] + CN(C)CCCOc1ccc(-c2ccc3ncc4c(c3c2)n(C2CCOCC2)c(=O)n4C)cn1 [AZD0156] (first compound max 1 µM, 7x7, partner max 1 µM) | 0.0929 | 0.0929 | 0.797 | 0.876 | 1 | 0.194 | 0.245 | 0.21 | 0.13 | 0.217 | 0.151 | 0.184 | 0.192 | 0.162 | 0.202 | 0.0423 | 0.963 | 0.375 | 0.182 | 0.134
